Measured values published in patent US8796470B2 (AbbVie Inc., priority 2010, dated 2014).

Molecular target: T1, human Cav2.2 (Homo sapiens, UniProt Q00975)
T1 construct: IMR32 cells endogenously expressing human Cav2.2; endogenous in cells; host or cells: IMR32 cells (human neuroblastoma)
Assay: Assessment of calcium channel activity using FLIPR (Ca2+ influx in IMR32 cells)
Format: cell-based
Settings: IMR32 cells endogenously expressing human Cav2.2, Calcium 4 dye, 60 minute pre-incubation, 2 μM nifedipine, depolarized with 80 mM KCl, 5 mM CaCl2
Method: (i) In Vitro Methods—Assessment of Calcium Channel Activity Using FLIPR:
IMR32 cells endogenously expressing human Cav2.2 were assayed for Ca^2+ influx using a no-wash calcium indicator dye (Calcium 4 dye: Molecular Probes) and FLIPR technology (Lubin, M. L.; Reitz, T. L.; Todd, M. J.; Flores, C. M.; Qin, N.; Xin, H. Assay and Drug Development Technologies 2006, 4(6), 689-694.). The IMR32 cells were maintained in MEM media containing 10% (v/v) FBS, 1% (v/v) antibiotic/antimitotic, 1% (v/v) sodium pyruvate and 1% (v/v) MEM NEAA. Following dissociation in 0.05% (v/v) trypsin/EDTA, cells were seeded into black 1×96-well plates (Corning Cellbind) at a density of 1−1.2×10^5 cells/well and incubated in the maintenance media above for 48 hours at 37° C. Immediately prior to performing the assay the media was removed and cells were loaded for 1.5 hours with 1×Calcium 4 dye prepared in HBSS (137 mM NaCl, 5.4 mM KCl, 0.25 mM Na2HPO4, 0.44 mM KH2PO4, 1.3 mM CaCl2, 1 mM MgSO4, 4.2 mM NaHCO3) containing HEPES pH 7.4 at room temperature. After dye loading and a subsequent 60 minute pre-incubation with compounds (full log dilutions from 10 μM to 0.1 nM) in the presence of 1.3 mM CaCl2 and 2 μM nifedipine to block endogenous L-type channels, the external Ca^2+ concentration was increased to 5 mM CaCl2 and the cells concomitantly depolarized with 80 mM KCl to assay channel activity. To determine the IC50 values, the percent inhibition of the compound at each concentration was determined relative to the activity in the absence of inhibitor, and data was fitted using non-linear regression sigmoidal dose response curve analysis with GraphPad Prism®.

T1 sequence (Q00975 whole entry): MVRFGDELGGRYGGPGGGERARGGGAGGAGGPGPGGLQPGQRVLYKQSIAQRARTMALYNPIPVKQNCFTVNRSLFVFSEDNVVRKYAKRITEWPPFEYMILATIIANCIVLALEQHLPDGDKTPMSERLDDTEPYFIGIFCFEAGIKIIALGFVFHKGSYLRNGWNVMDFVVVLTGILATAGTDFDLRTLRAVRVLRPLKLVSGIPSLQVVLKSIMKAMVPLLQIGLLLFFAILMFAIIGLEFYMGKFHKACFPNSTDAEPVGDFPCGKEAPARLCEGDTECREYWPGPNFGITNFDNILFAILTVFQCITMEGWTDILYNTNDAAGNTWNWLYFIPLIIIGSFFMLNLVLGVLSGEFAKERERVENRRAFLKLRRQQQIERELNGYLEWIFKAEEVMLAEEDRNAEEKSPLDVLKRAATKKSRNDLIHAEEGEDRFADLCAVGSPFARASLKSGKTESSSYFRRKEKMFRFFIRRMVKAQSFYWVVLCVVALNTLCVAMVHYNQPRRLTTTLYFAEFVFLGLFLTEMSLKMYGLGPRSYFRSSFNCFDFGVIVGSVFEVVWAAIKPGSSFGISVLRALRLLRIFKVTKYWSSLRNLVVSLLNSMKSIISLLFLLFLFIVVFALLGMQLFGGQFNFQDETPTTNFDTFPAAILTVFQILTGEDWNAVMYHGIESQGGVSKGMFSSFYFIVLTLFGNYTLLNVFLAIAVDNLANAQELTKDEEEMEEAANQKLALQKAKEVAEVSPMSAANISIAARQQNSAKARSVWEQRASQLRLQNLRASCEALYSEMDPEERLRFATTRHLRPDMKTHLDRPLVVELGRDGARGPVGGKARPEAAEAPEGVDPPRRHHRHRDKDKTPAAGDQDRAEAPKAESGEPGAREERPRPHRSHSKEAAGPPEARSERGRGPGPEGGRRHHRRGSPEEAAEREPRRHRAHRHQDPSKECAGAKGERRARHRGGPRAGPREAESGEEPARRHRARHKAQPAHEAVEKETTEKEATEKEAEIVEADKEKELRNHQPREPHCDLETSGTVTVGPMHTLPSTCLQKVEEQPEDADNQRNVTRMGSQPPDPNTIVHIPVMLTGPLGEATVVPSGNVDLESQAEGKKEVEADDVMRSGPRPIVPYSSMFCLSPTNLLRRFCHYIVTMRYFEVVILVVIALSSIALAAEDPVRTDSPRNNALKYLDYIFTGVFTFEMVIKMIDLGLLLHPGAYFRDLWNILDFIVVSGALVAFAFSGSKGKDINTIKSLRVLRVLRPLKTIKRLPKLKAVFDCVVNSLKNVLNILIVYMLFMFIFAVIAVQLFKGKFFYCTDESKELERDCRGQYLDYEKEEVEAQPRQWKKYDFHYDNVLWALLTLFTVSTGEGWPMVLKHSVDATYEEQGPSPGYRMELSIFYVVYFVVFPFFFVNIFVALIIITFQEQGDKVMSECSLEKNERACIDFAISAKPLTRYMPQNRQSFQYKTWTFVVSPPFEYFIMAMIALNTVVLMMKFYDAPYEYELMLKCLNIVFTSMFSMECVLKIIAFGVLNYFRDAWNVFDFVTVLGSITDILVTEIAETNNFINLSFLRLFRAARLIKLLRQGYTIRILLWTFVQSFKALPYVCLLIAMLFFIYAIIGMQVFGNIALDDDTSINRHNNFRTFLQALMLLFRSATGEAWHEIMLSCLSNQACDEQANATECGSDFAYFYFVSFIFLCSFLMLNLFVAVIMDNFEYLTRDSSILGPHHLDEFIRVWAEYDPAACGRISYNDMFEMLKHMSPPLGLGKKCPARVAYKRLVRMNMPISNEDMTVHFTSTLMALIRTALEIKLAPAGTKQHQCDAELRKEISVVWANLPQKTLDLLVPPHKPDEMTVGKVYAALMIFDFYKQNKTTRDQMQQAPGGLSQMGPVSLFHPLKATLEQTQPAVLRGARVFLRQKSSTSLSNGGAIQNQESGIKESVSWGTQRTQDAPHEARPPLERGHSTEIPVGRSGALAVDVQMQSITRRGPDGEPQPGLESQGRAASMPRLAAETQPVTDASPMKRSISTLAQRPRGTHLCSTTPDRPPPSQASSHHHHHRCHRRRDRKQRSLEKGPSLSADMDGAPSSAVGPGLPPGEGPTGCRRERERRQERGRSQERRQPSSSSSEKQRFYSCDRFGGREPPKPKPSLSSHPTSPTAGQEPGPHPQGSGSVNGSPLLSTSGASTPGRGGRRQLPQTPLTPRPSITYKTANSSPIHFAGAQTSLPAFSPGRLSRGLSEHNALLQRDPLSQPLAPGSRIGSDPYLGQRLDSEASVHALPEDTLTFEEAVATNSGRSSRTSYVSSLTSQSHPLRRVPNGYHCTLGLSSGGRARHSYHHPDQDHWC
T1 sequence (P54289 25-956 partner limits assumed): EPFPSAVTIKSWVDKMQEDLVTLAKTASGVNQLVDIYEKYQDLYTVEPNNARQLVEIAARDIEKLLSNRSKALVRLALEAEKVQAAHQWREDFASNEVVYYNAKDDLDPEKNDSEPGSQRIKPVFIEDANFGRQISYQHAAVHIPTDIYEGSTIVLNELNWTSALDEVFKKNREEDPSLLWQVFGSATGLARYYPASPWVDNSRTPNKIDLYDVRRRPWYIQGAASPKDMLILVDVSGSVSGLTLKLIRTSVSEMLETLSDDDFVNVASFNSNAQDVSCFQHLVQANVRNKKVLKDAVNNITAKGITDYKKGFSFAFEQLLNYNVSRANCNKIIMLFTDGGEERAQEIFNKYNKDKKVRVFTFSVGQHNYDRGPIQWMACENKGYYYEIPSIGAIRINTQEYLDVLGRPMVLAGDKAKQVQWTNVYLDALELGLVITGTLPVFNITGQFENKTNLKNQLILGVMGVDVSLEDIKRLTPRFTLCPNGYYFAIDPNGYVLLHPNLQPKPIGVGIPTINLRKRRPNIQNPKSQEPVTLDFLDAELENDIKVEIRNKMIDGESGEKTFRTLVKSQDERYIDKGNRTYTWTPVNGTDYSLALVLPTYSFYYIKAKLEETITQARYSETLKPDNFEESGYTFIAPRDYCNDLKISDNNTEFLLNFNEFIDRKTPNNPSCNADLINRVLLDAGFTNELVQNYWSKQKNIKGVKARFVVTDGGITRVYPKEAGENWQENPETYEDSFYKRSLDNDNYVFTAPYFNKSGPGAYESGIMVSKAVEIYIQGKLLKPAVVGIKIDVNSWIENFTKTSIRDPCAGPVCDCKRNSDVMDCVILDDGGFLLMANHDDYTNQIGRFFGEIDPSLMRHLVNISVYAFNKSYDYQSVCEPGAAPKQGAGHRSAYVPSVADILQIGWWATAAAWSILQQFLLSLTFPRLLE
T1 sequence (P54289 957-1103 partner limits assumed): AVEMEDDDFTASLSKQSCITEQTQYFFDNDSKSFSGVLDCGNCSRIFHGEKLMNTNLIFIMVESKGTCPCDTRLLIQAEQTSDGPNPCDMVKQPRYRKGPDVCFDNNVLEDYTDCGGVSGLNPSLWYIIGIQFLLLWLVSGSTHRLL
T1 sequence (P54284 whole entry partner): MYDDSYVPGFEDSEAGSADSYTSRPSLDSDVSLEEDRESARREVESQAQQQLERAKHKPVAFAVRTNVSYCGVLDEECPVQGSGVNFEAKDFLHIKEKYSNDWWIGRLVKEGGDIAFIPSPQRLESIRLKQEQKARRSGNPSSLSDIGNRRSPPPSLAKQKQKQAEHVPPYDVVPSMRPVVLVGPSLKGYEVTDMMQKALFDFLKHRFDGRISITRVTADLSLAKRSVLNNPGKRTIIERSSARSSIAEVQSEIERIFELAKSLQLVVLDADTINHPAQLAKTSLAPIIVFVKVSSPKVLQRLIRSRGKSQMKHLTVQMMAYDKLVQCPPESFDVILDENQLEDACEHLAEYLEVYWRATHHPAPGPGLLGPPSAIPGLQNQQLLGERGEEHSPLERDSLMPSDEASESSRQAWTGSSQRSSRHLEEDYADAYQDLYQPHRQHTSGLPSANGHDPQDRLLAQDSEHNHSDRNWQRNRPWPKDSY

| Compound | IC50 [µM] |
| --- | --- |
| 5-methyl-1-{(3aR,4S,6aS)-2-[6-(trifluoromethyl)pyridin-2-yl]octahydrocyclopenta[c]pyrrol-4-yl}-1H-benzimidazole and 6-methyl-1-{(3aR,4S,6aS)-2-[6-(trifluoromethyl)pyridin-2-yl]octahydrocyclopenta[c]pyrrol-4-yl}-1H-benzimidazole [Example 59] | 2.8 |
| C=C1CC[C@@H]2CN(Cc3ccccc3)C[C@H]12 [Example 1, (3aS,6aS)-2-benzyl-4-methyleneoctahydrocyclopenta[c]pyrrole] | > 30 |
| C[C@@]1(NC(=O)c2ccccc2)CC[C@@H]2CN(Cc3ccccc3)C[C@@H]21 [Example 2, N-[(3aR,4R,6aS)-2-benzyl-4-methyloctahydrocyclopenta[c]pyrrol-4-yl]benzamide] | 11.5 |
| C[C@]1(NC(=O)c2ccccc2)CC[C@@H]2CN(Cc3ccccc3)C[C@@H]21 [Example 3, N-[(3aR,4S,6aS)-2-benzyl-4-methyloctahydrocyclopenta[c]pyrrol-4-yl]benzamide] | 12 |
| CC(=O)N[C@]1(C)CC[C@@H]2CN(Cc3ccccc3)C[C@@H]21 [Example 4, N-[(3aR,4R,6aS)-2-benzyl-4-methyloctahydrocyclopenta[c]pyrrol-4-yl]acetamide] | > 30 |
| CC(=O)N[C@@]1(C)CC[C@@H]2CN(Cc3ccccc3)C[C@@H]21 [Example 5, N-[(3aR,4S,6aS)-2-benzyl-4-methyloctahydrocyclopenta[c]pyrrol-4-yl]acetamide] | > 30 |
| C[C@@]1(NC(=O)c2cccc(F)c2)CC[C@@H]2CN(Cc3ccccc3)C[C@@H]21 [Example 6, N-[(3aR,4R,6aS)-2-benzyl-4-methyloctahydrocyclopenta[c]pyrrol-4-yl]-3-fluorobenzamide] | 17.7 |
| C[C@]1(NC(=O)c2cccc(F)c2)CC[C@@H]2CN(Cc3ccccc3)C[C@@H]21 [Example 7, N-[(3aR,4S,6aS)-2-benzyl-4-methyloctahydrocyclopenta[c]pyrrol-4-yl]-3-fluorobenzamide] | 5.16 |
| C[C@@]1(NC(=O)c2ccccc2)CC[C@@H]2CNC[C@@H]21 [Example 8, N-[(3aR,4R,6aS)-4-methyloctahydrocyclopenta[c]pyrrol-4-yl]benzamide] | 26.3 |
| C[C@]1(NC(=O)c2ccccc2)CC[C@@H]2CNC[C@@H]21 [Example 9, N-[(3aR,4S,6aS)-4-methyloctahydrocyclopenta[c]pyrrol-4-yl]benzamide] | > 30 |
| C[C@@]1(NC(=O)c2ccccc2)CC[C@@H]2CN(c3cccc(C(F)(F)F)n3)C[C@@H]21 [Example 14, N-{(3aR,4R,6aS)-4-methyl-2-[6-(trifluoromethyl)pyridin-2-yl]octahydrocyclopenta[c]pyrrol-4-yl}benzamide] | 2.14 |
| C[C@]1(NC(=O)c2ccccc2)CC[C@@H]2CN(c3cccc(C(F)(F)F)n3)C[C@@H]21 [Example 15, N-{(3aR,4S,6aS)-4-methyl-2-[6-(trifluoromethyl)pyridin-2-yl]octahydrocyclopenta[c]pyrrol-4-yl}benzamide] | 2.52 |
| CC(=O)N[C@]1(C)CC[C@@H]2CN(c3cccc(C(F)(F)F)n3)C[C@@H]21 [Example 16, N-{(3aR,4R,6aS)-4-methyl-2-[6-(trifluoromethyl)pyridin-2-yl]octahydrocyclopenta[c]pyrrol-4-yl}acetamide] | 6.44 |
| CC(=O)N[C@@]1(C)CC[C@@H]2CN(c3cccc(C(F)(F)F)n3)C[C@@H]21 [Example 17, N-{(3aR,4S,6aS)-4-methyl-2-[6-(trifluoromethyl)pyridin-2-yl]octahydrocyclopenta[c]pyrrol-4-yl}acetamide] | 3.27 |
| C[C@@]1(NC(=O)c2cccc(F)c2)CC[C@@H]2CN(c3cccc(C(F)(F)F)n3)C[C@@H]21 [Example 18, 3-fluoro-N-{(3aR,4R,6aS)-4-methyl-2-[6-(trifluoromethyl)pyridin-2-yl]octahydrocyclopenta[c]pyrrol-4-yl}benzamide] | 1.5 |
| C[C@]1(NC(=O)c2cccc(F)c2)CC[C@@H]2CN(c3cccc(C(F)(F)F)n3)C[C@@H]21 [Example 19, 3-fluoro-N-{(3aR,4S,6aS)-4-methyl-2-[6-(trifluoromethyl)pyridin-2-yl]octahydrocyclopenta[c]pyrrol-4-yl}benzamide] | 1.82 |
| C[C@]1(NCc2ccccc2)CC[C@@H]2CN(c3cccc(C(F)(F)F)n3)C[C@@H]21 [Example 20, (3aR,4S,6aS)—N-benzyl-4-methyl-2-[6-(trifluoromethyl)pyridin-2-yl]octahydrocyclopenta[c]pyrrol-4-amine] | 0.38 |
| C[C@@]1(NCc2ccccc2)CC[C@@H]2CN(c3cccc(C(F)(F)F)n3)C[C@@H]21 [Example 21, (3aR,4R,6aS)—N-benzyl-4-methyl-2-[6-(trifluoromethyl)pyridin-2-yl]octahydrocyclopenta[c]pyrrol-4-amine] | 1.03 |
| CCN[C@]1(C)CC[C@@H]2CN(c3cccc(C(F)(F)F)n3)C[C@@H]21 [Example 22, (3aR,4R,6aS)—N-ethyl-4-methyl-2-[6-(trifluoromethyl)pyridin-2-yl]octahydrocyclopenta[c]pyrrol-4-amine] | 5.85 |
| CCN[C@@]1(C)CC[C@@H]2CN(c3cccc(C(F)(F)F)n3)C[C@@H]21 [Example 23, (3aR,4S,6aS)—N-ethyl-4-methyl-2-[6-(trifluoromethyl)pyridin-2-yl]octahydrocyclopenta[c]pyrrol-4-amine] | 1.76 |
| C[C@@]1(NCc2cccc(F)c2)CC[C@@H]2CN(c3cccc(C(F)(F)F)n3)C[C@@H]21 [Example 24, (3aR,4R,6aS)—N-(3-fluorobenzyl)-4-methyl-2-[6-(trifluoromethyl)pyridin-2-yl]octahydrocyclopenta[c]pyrrol-4-amine] | 0.33 |
| C[C@]1(NCc2cccc(F)c2)CC[C@@H]2CN(c3cccc(C(F)(F)F)n3)C[C@@H]21 [Example 25, (3aR,4S,6aS)—N-(3-fluorobenzyl)-4-methyl-2-[6-(trifluoromethyl)pyridin-2-yl]octahydrocyclopenta[c]pyrrol-4-amine] | 0.18 |
| C[C@@]1(N)CC[C@@H]2CN(c3cccc(C(F)(F)F)n3)C[C@@H]21 [Example 26, (3aR,4R,6aS)-4-methyl-2-[6-(trifluoromethyl)pyridin-2-yl]octahydrocyclopenta[c]pyrrol-4-amine] | 3.64 |
| C[C@]1(N)CC[C@@H]2CN(c3cccc(C(F)(F)F)n3)C[C@@H]21 [Example 27, (3aR,4S,6aS)-4-methyl-2-[6-(trifluoromethyl)pyridin-2-yl]octahydrocyclopenta[c]pyrrol-4-amine] | 1.8 |
| O[C@@H]1CC[C@@H]2CN(c3cccc(C(F)(F)F)n3)C[C@@H]21 [Example 30, (3aR,4R,6aS)-2-[6-(trifluoromethyl)pyridin-2-yl]octahydrocyclopenta[c]pyrrol-4-ol] | 15.8 |
| O[C@H]1CC[C@@H]2CN(c3cccc(C(F)(F)F)n3)C[C@@H]21 [Example 31, (3aR,4S,6aS)-2-[6-(trifluoromethyl)pyridin-2-yl]octahydrocyclopenta[c]pyrrol-4-ol] | 9.62 |
| O=C1CC[C@@H]2CN(c3cccc(C(F)(F)F)n3)C[C@H]12 [Example 32, (3aR,6aS)-2-[6-(trifluoromethyl)pyridin-2-yl]hexahydrocyclopenta[c]pyrrol-4(1H)-one] | 21.4 |
